Values joined by “and” are separate entries in the source; they are usually repeats but may differ in a detail not shown here. Identical values can stand only once.
System: Erwinia amylovora 385
Assay: Reduction of the Erwinia amylovora population on apple blossom
Type: in vivo
Conditions: 0.06% streptomycin; apple blossom cv. Gala; 10^6 bacteria/ml; sprayed one hour after inoculation; 6 days at 20 to 23° C.; tests 4 to 6
Description: 2. Testing the Reduction of the Erwinia amylovora Population on Apple Blossom
Test plants: Apple blossom cv. Gala
Apple blossom cv. Gala were used in the following tests. The trees had not been treated with plant protection compositions. The flowers were placed by the petiole into a 10% strength sucrose solution and incubated in a humid chamber. 24 flowers were employed per treatment and repletition, and the test was repeated in each case three times.
Pathogen: Erwinia amylovora 385 was grown on agar plates. The apple blossom was inoculated with a suspension of 10^6 bacteria/ml.
Plant Treatment Composition:
1 part by weight of a solid formulation comprising
63.75% by weight of calcium formate
18.75% by weight of citric acid
16.73% by weight of calcium chloride
0.77% by weight of wetting agent and anti-dust agent were dissolved in 50 parts by weight (P 2%) of tap water and the solution was used for the following treatment. The pH was 4.1.
To carry out the treatments, the blossom was sprayed with the respective solution one hour after the inoculation, the chamber was sealed, and the contents were incubated for 6 days at 20 to 23° C.
(1-3) Water as the control
(4-6) 0.06% streptomycin (for comparison)

## [H]/N=C(/N)N[C@H]1[C@H](O)[C@@H](O)[C@H](O[C@@H]2O[C@@H](C)[C@](O)(C=O)[C@H]2O[C@@H]2O[C@@H](CO)[C@H](O)[C@@H](O)[C@@H]2NC)[C@@H](N/C(N)=N\[H])[C@@H]1O [streptomycin]
  Efficacy: 84.6% and 89.5% and 95.5%

Reference: patent US20110165267A1, “AGENTS FOR TREATING AND/OR AVOIDING FIRE BLIGHT” (LANXESS DISTRIBUTION GMBH, priority 2008, published 2011)
